Experimental data published in patent US11813306B2, “Cyclic tetramer compounds as proprotein convertase subtilisin/kexin type 9 (PCSK9) inhibitors for the treatment of metabolic disorders” (NOVARTIS AG, priority 2018, dated 2023).

Target: human PCSK9 (Homo sapiens, UniProt Q8NBP7)
Experiment: PCSK9 ligand binding assay (TR-FRET): interference with binding of human PCSK9 to human LDLR
Conditions: for IC50: Human PCSK9 Alexa Fluor 647 / Human LDLR extracellular domain-Europium Kryptate; for Max % inhibition: efficacy (Amax), 100% = 1 uM unlabeled human PCSK9, 0% = DMSO
In short: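 Read-out was TR-FRET ratio (665 nm over 615 nm, 330 nm excitation) between Alexa Fluor 647-human PCSK9 (16 nM added) and Europium Kryptate-human LDLR ectodomain (4 nM added). Compound and PCSK9 were mixed 30 min before LDLR, then incubated 2 h. Inhibition was normalised to DMSO and unlabelled-PCSK9 controls, giving IC50 and Amax.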

Chain of human PCSK9 (Q8NBP7 153-692): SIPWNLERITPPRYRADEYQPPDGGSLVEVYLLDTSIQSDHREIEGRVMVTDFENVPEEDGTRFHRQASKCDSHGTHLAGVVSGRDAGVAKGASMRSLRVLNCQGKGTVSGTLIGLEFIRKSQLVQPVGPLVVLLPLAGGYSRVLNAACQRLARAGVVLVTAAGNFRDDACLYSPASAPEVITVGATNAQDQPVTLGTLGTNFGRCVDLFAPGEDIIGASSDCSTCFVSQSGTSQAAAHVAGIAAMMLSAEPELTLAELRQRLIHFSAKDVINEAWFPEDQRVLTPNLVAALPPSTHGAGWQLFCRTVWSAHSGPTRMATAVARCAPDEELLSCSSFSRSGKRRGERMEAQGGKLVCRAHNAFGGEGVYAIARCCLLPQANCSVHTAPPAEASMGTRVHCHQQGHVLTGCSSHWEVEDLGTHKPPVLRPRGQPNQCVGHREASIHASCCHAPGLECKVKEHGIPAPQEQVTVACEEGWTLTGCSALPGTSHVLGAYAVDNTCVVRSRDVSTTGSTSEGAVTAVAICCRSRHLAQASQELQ
Chain of human PCSK9 (Q8NBP7 31-152 partner limits assumed): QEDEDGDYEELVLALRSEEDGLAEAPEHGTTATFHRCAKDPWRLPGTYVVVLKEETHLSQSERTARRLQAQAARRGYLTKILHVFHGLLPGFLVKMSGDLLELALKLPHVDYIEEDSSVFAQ

For `C[C@H]1C(=O)N[C@@H](CO)C(=O)N[C@@]2(Cc3ccc(Cl)cc3)CCCN(C2)C(=O)[C@H](CC2CC2)CC(=O)N1Cc1ccc(Cl)cc1Oc1ccc(-c2cnc(CN(C)C)n2C)cc1` [Compound 42, (3R, 7S, 10S, 13R)-6-(4-chloro-2-(4-(2-((dimethylamino)methyl)-1-methyl-1H-imidazol-5-yl)phenoxy)benzyl)-13-(4-chlorobenzyl)-3-(cyclopropylmethyl)-10-(hydroxymethyl)-7-methyl-1,6,9,12-tetraazabicyclo[11.3.1]heptadecone-2,5,8,11-tetraone], the IC50 was 0.596 nM and the Max % inhibition was 108.3%.
Compound `CCc1ccc(CN2C(=O)C[C@@H]([C@@H]3CCc4ccccc43)C(=O)N(C)C[C@@H](Cc3ccc(Cl)cc3)N(C)C(=O)[C@H](CO)NC(=O)[C@@H]2C)c(Oc2ccc(-c3cnc(CN(C)C)n3C)cc2)c1` [Compound 119, (2S,5S,8R,12S)-8-(4-Chlorobenzyl)-12-((S)-2,3-dihydro-1H-inden-1-yl)-1-(2-(4-(2-((dimethylamino)methyl)-1-methyl-1H-imidazol-5-yl)phenoxy)-4-ethylbenzyl)-5-(hydroxymethyl)-2,7,10-trimethyl-1,4,7,10-tetraazacyclotetradecane-3,6,11,14-tetraone] has an IC50 of 31.3 nM and a Max % inhibition of 94.0%.
`C[C@H]1C(=O)N[C@@H](CO)C(=O)N[C@@]2(Cc3ccc(Cl)cc3)CCCN(C2)C(=O)[C@H](CC2CC2)CC(=O)N1Cc1c(F)cc(Cl)cc1Oc1ccc(-c2cnc(CNC3CCC3)n2C)cc1` [Compound 153, (3R, 7S, 10S, 13R)-6-(4-chloro-2-(4-(2-((cyclobutylamino)methyl)-1-methyl-1H-imidazol-5-yl)phenoxy)-6-fluorobenzyl)-13-(4-chlorobenzyl)-3-(cyclopropylmethyl)-10-(hydroxymethyl)-7-methyl-1,6,9,12-tetraazabicyclo[11.3.1]heptadecane-2,5,8,11-tetraone] showed an IC50 of 0.93 nM and a Max % inhibition of 100.4%.
Compound `COC[C@@H]1NC(=O)[C@H](C)N(Cc2c(F)cc(Cl)cc2Oc2ccc(-c3cnc(CN(C)C(C)(C)C)n3C)cc2)C(=O)C[C@@H](CC(F)(F)F)C(=O)N2CCC[C@@](Cc3ccc(Cl)cc3)(C2)NC1=O` [Compound 137, (3S,7S,10S,13R)-6-(2-(4-(2-((tert-Butyl(methyl)amino)methyl)-1-methyl-1H-imidazol-5-yl)phenoxy)-4-chloro-6-fluorobenzyl)-13-(4-chlorobenzyl)-10-(methoxymethyl)-7-methyl-3-(2,2,2-trifluoroethyl)-1,6,9,12-tetraazabicyclo[11.3.1]heptadecane-2,5,8,11-tetraone] has an IC50 of 0.3 nM and a Max % inhibition of 113.0%.
`COC[C@@H]1NC(=O)[C@H](C)N(Cc2c(F)cc(Cl)cc2Oc2ccc(-c3cnc(CN(C)C)n3C)cc2)C(=O)C[C@@H](Cc2cccc[n+]2[O-])C(=O)N2CCC[C@@](Cc3ccc(Cl)cc3)(C2)N(C)C1=O` [Compound 3, 2-(((3R, 7S, 10S, 13R)-6-(4-chloro-2-(4-(2-((dimethylamino)methyl)-1-methyl-1H-imidazol-5-yl)phenoxy)-6-fluorobenzyl)-13-(4-chlorobenzyl)-10-(methoxymethyl)-7,12-dimethyl-2,5,8,11-tetraoxo-1,6,9,12-tetraazabicyclo[11.3.1]heptadecan-3-yl)methyl)pyridine 1-oxide] showed an IC50 of 0.452 nM and a Max % inhibition of 113.9%.
With `CCC[C@@H]1CC(=O)N(Cc2c(F)cc(Cl)cc2Oc2ccc(-c3cnc(CN(C)C)n3C)cc2)[C@@H](C)C(=O)N[C@@H](CO)C(=O)N[C@@]2(Cc3ccc(Cl)cc3)CCCN(C2)C1=O` [Compound 51, (3R, 7S, 10S, 13R)-6-(4-chloro-2-(4-(2-((dimethylamino)methyl)-1-methyl-1H-imidazol-5-yl)phenoxy)-6-fluorobenzyl)-13-(4-chlorobenzyl)-10-(hydroxymethyl)-7-methyl-3-propyl-1,6,9,12-tetraazabicyclo[11.3.1]heptadecane-2,5,8,11-tetraone] the IC50 was 1.12 nM and the Max % inhibition was 101.3%.
